According to publication PMC6070540, “SUMO-mediated regulation of NLRP3 modulates inflammasome activity” (Nature Communications, 2018):

Assays:
FLAG-tagged human NLRP3 = assay: Sumoylation of NLRP3 in HEK293T cells (denaturing immunoprecipitation, immunoblot); type: cell-based; settings: for sumoylation of mutant NLRP3: transfected HEK293T cells, compared to WT NLRP3
Description: (§1) For sumoylation and ubiquitination assays 2 × 10^6 HEK293T cells were plated in 10 cm dishes and transfected with a total of 7.5 μg of DNA the following day. A modified version of “Detection of Sumoylated Proteins by Immunoprecipitation Analysis”[61] was used. Briefly, 16 h post-transfection cells were lysed in SDS lysis buffer (1% SDS, 0.15 M Tris-HCl pH 6.8 and 30% Glycerol). Lysates were boiled for 5 min and diluted 10 × in PBS-T (PBS and 1% Triton-X 100) supplemented with PR-619 (50 μM) and complete protease inhibitors. Cell lysates were sonicated for 20 s then clarified at 4 °C at 13,000 rpm for 10 min. A 20 μl of α-HA beads (SIGMA) or α-FLAG M2 beads (SIGMA) was rotated with cleared protein lysates at 4 °C for 4 h. Furthermore, 4× washes in PBS-T, supplemented with PR-619 (20 μM) and complete protease inhibitors, were performed, and samples eluted by boiling in 60 μl 1× SDS loading dye. Samples were separated by SDS-PAGE using Bolt 8% Bis-Tris plus 1.0 mm 12 well precast protein gels (Life Technologies) in MOPS buffer. Where necessary, the modification smears were quantified using Image Lab Software (Bio-Rad) and normalised to total immunoprecipitated NLRP3 in biological triplicate.

[1] = system: endogenous NLRP3 and SUMO-2/-3; assay: Proximity ligation assay (PLA) NLRP3/SUMO-2/-3; type: cell-based, murine; settings: immortalised WT BMDMs; LPS 4 h followed by 10 µM nigericin 30 min or 5 mM ATP 20 min (ATP n = 1)
Description: (§2) For immunofluorescence staining, 1.5 × 10^5 cells were plated on 13 mm glass cover slips (VWR). Cells were either left untreated, or treated with LPS (500 ng/ml) for 4 h followed or not by 10 µM nigericin for 30 min or 5 mM ATP for 20 min, before being fixed in 4% paraformaldehyde for 10 min. Following 10 min permeabilization with PBS containing 0.5% Triton X-100, cells were incubated for 1 h in 5% BSA in PBS. Respective primary antibodies were then added as follows: mouse α-NLRP3 (AG-20B-0014, AdipoGen, 1:1000), rabbit α-SUMO-2/3 (4971, Cell Signalling, 1:1000), rabbit α-ASC (AG-25B-0006, AdipoGen, 1:200) and rabbit α-MAPL (ab84067, Abcam, 1:1000). Alexa Fluor 633-conjugated Phalloidin (Invitrogen, 1:500) was used to stain actin filaments. Secondary fluorescent conjugated antibodies were then added as follows: 1:1000 CF488A-donkey α-mouse and 1:1000 CF488-donkey α-rabbit. Nuclei were stained with DAPI (Invitrogen). Cells were visualised by confocal microscopy (objective× 40, Zeiss LSM710). PLA was performed according to the manufacturer’s protocol using the Duolink Detection Kit (Cambridge BioScience Ltd). […] The number of fluorescent spots in 50 cells were quantified using ImageJ and data analysed using two-way ANOVA multiple comparison test or two-tailed Student’s t-test using Prism 7, Graphpad.

NLRP3 and ASC = assay: PLA NLRP3/ASC (inflammasome formation); type: cell-based, murine; settings: WT BMDMs; LPS 4 h followed by 10 µM nigericin 30 min or 5 mM ATP 20 min (ATP n = 1)
Description: as §2

FLAG-NLRP3 = assay: Ubiquitylation of NLRP3 in HEK293T cells (immunoprecipitation, immunoblot); type: cell-based, human
Description: as §1

SUMO-2/-3 proteome = assay: Global sumoylation (RanGAP1, total SUMO-2/-3 proteome); type: cell-based, human; settings: HEK293T cells, nigericin
Description: as §1

NLRP3 and MAPL = assay: PLA NLRP3/MAPL; type: cell-based, murine; settings: WT BMDMs; untreated, LPS 4 h, or LPS 4 h followed by 10 µM nigericin 30 min; biological triplicate
Description: as §2

NLRP3, SUMO-2/-3, MAPL = assay: Immunofluorescence staining of NLRP3, SUMO-2/-3, MAPL; type: cell-based, murine; settings: BMDMs
Description: as §2

caspase-1 = assay: Caspase-1 cleavage assay in 293T-ASC-caspase-1 cells; type: cell-based, human; settings: transfected 293T-ASC-caspase-1 cells; p20 immunoblot
Description: For caspase-1 cleavage assays 1 × 10^5 HEK293T-ASC-caspase-1 cells were plated in 24-well plates and transfected with a total of 600 ng of DNA the following day. Cells were lysed in 80 μl of DISC lysis buffer (20 mM Tris-HCL pH 7.5, 150 mM NaCl, 2 mM EDTA, 1% Triton X-100, 10% Glycerol) supplemented with 2% SDS. To shred genomic DNA cell lysates were passed through 0.8 ml columns (Pierce). Lysates were quantified using BCA protein assay kit (Pierce) and 6× SDS loading dye added. Samples were boiled for 5 min before separating by SDS-PAGE using NuPAGE Novex 4–12% Bis-Tris 1.0 mm 20 well precast midi protein gels (Life Technologies) in MES buffer. Caspase-1 p20 antibody (Bally-1, human, Adipogen) was used to detect total and cleaved caspase-1 in cell lysate.

“NLRP3^E692K: reported CAPS disease mutant” was tested, and the “sumoylation of mutant NLRP3” value (FLAG-tagged human NLRP3) was “did not reduce the overall sumoylation smearing pattern”.

With `Nc1ncnc2c1ncn2[C@@H]1O[C@H](COP(=O)(O)OP(=O)(O)OP(=O)(O)O)[C@@H](O)[C@H]1O` [ATP] the “NLRP3-SUMO-2/-3 PLA signals upon inflammasome activation” value [1] was “significantly reduced proximity labelling of NLRP3 and SUMO-2/-3” and the “NLRP3-ASC inflammasome complexes (PLA)” value (NLRP3 and ASC) was “specifically formed upon treatment with LPS and nigericin or ATP”.

`N#CSc1cc(SC#N)c(N)nc1N` [PR-619] was tested, and the “appearance of sumoylated NLRP3” value (FLAG-tagged human NLRP3; HEK293T cells transfected with FLAG-tagged human NLRP3, endogenous SUMO-2/-3, immunoblot, in the presence vs absence of compound) was “significantly enhanced the appearance of sumoylated NLPR3”.

“NLRP3^E690K: reported CAPS disease mutant” was tested, and the “sumoylation of mutant NLRP3” value (FLAG-tagged human NLRP3) was “did not reduce the overall sumoylation smearing pattern”.

`CO[C@@H]1C[C@@H](C[C@H]2CC[C@H](C)[C@H]([C@@H](C)C(=O)O)O2)O[C@]2(O[C@](C)([C@H]3CC[C@@](C)([C@@H]4O[C@@H]([C@H]5O[C@@](O)(CO)[C@H](C)C[C@@H]5C)C[C@@H]4C)O3)C[C@H]2C)[C@@H]1C` [nigericin] was tested, and the “sumoylated NLRP3 after stimulation” value (FLAG-tagged human NLRP3; HEK293T cells expressing FLAG-NLRP3, nigericin time course, normalised to total immunoprecipitated NLRP3, three independent experiments) was “induced notable reduction of sumoylated NLRP3”, the “ubiquitylated NLRP3 after stimulation” value (FLAG-NLRP3; HEK293T cells expressing FLAG-NLRP3, nigericin time course, three independent experiments) was “less ubiquitylated” and the “sumoylation of RanGAP1” value (SUMO-2/-3 proteome; selectivity control) was “remained sumoylated”. For the same molecule, the “overall smearing pattern of total SUMO-2/-3 proteome” value (SUMO-2/-3 proteome; total cell lysates) was “no apparent change”, the “NLRP3-SUMO-2/-3 PLA signals upon inflammasome activation” value [1] was “significantly reduced proximity labelling of NLRP3 and SUMO-2/-3” and the “NLRP3-ASC inflammasome complexes (PLA)” value (NLRP3 and ASC) was “specifically formed upon treatment with LPS and nigericin or ATP”. The MAPL/NLRP3 proximity signals (NLRP3 and MAPL) was “almost completely abolished MAPL/NLRP3 proximity signals”, the “general expression of NLRP3 and SUMO-2/-3” value (NLRP3, SUMO-2/-3, MAPL; LPS and nigericin, immunofluorescence) was “unaffected” and the MAPL staining (NLRP3, SUMO-2/-3, MAPL; nigericin, conventional immunofluorescence) was “caused a decrease in MAPL staining”.

With “NLRP3^K689R: full length NLRP3 with K689 mutated to R” the “sumoylation of mutant NLRP3” value (FLAG-tagged human NLRP3) was “no effect”, the “ubiquitylation of mutant NLRP3” value (FLAG-NLRP3; transfected HEK293T cells, compared to WT NLRP3) was “no effect” and the “ability of NLRP3 to activate caspase-1” value (caspase-1) was “hyperactive in driving caspase-1 cleavage”.

B1: WT MAPL: mitochondrial-anchored protein ligase, SUMO E3 ligase (protein)
chain: MESGGRPSLCQFILLGTTSVVTAALYSVYRQKARVSQELKGAKKVHLGEDLKSILSEAPGKCVPYAVIEGAVRSVKETLNSQFVENCKGVIQRLTLQEHKMVWNRTTHLWNDCSKIIHQRTNTVPFDLVPHEDGVDVAVRVLKPLDSVDLGLETVYEKFHPSIQSFTDVIGHYISGERPKGIQETEEMLKVGATLTGVGELVLDNNSVRLQPPKQGMQYYLSSQDFDSLLQRQESSVRLWKVLALVFGFATCATLFFILRKQYLQRQERLRLKQMQEEFQEHEAQLLSRAKPEDRESLKSACVVCLSSFKSCVFLECGHVCSCTECYRALPEPKKCPICRQAITRVIPLYNS
modifications: left off: 2xHA, end not stated, kept | 2xSTREP, end not stated, state not stated
For B1, the “sumoylation of NLRP3 by co-expressed MAPL” value (FLAG-tagged human NLRP3; FLAG-NLRP3 purified under denaturing conditions, HEK293T, three independent experiments) was “sumoylated NLRP3”.
